From US8927732B2, “Biotin stannane for HPLC-free radioiodination” (General Electric Company, priority 2012, dated 2015)

Biological target: streptavidin resin column (Streptomyces avidinii, UniProt P22629)
Experiment: Purification with streptavidin resin column in the presence of additives (solubility enhancing agent study)
Conditions: eluent PBS
Description: To an Eppendorf vial were added 56.6 μg precursor 4 (56.6 μL, 1.0 mg/mL, EtOH), 5 μL AcOH, Na^125I (18.5 MBq or 500 μCi, pH 8˜11 in aqueous NaOH) and iodogen (50 μL, 0.2 mg/mL in EtOH), subsequently. The reaction mixture was allowed to sit at room temperature for 20 minutes, with occasional swirling. After quenching with 100 μL of Na2S2O3 (0.1 M aq.), the mixture was diluted with 100 μL of EtOH then added to the binding buffer tested as described below.
A streptavidin resin column was packed using 1.6 mL of resin slurry (0.8 mL of actual resin) as described previously and washed with the appropriate binding buffer (4.0 mL, 5 cv). An 80 μL aliquot of the above radiolabeling mixture was diluted with the appropriate binding buffer (920 μL) and mixed for 10 minutes before loading onto streptavidin column. After incubation for 20 minutes, radiolabeled product was eluted off the column with binding buffer (three 0.5 mL fractions collected). All fractions (including a forerun fraction collected while loading the reaction mixture onto column) were subjected to HPLC analysis before being combined.

Chain of streptavidin resin column (P22629 25-183): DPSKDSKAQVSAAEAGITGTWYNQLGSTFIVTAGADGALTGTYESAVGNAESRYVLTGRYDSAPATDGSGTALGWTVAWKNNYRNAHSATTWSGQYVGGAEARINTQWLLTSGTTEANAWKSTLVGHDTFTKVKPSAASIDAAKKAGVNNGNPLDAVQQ

Q: Which results are given for `O=C(OCc1ccccc1)c1cccc([125I])c1` [Compound 125I-3IBABn]?
A: Activity left on column (10% HP-β-CD w/v): 16%; Activity left on column (20% HP-β-CD w/v): 13%; Activity left on column (40% HP-β-CD w/v): 7%
